Measured values published in the NIST ThermoML archive (doi:10.1016/j.tca.2005.11.021).

Experiment: molar heat capacity at constant pressure
Details: 101.33 kPa, Crystal, Small (less than 1 g) adiabatic calorimetry

N[C@@H](CCC(=O)[O-])C(=O)[O-].N[C@@H](CCC(=O)[O-])C(=O)[O-].O.O.O.O.O.O.O.O.O.[Ho+3].[Ho+3].[O-][Cl+3]([O-])([O-])O.[O-][Cl+3]([O-])([O-])O.[O-][Cl+3]([O-])([O-])[O-].[O-][Cl+3]([O-])([O-])[O-] [diholmium tetraperchlorate bis-l-glutamate nonahydrate]
Details	molar heat capacity at constant pressure [J/K/mol]
78.47 K	416.36
79.95 K	427.06
81.58 K	448.95
83.14 K	457.5
84.69 K	466.74
86.44 K	480.65
88.37 K	490.26
90.58 K	502.33
93.05 K	521.47
95.51 K	537.31
97.87 K	558.72
100.23 K	562.37
102.52 K	570.54
104.79 K	579.03
107.01 K	584.28
109.19 K	599.35
111.54 K	612.05
114.01 K	619.47
116.69 K	633.45
119.55 K	640.47
122.36 K	656.69
125.12 K	670.24
127.84 K	678.7
130.52 K	691.49
133.16 K	703.15
136.41 K	717.73
140.25 K	728.41
144.03 K	745.38
147.75 K	759.44
151.88 K	781.07
156.39 K	802.41
160.82 K	822.03
165.17 K	841.38
169.46 K	860.32
173.69 K	880.13
177.85 K	903.04
181.91 K	962.58
185.82 K	1035.9
189.62 K	1053.8
193.38 K	1068
197.09 K	1084.5
200.76 K	1104.7
204.4 K	1116.6
208 K	1131.5
211.57 K	1149.2
215.09 K	1170.1
218.58 K	1180.3
222.04 K	1198
225.47 K	1211.6
228.86 K	1235.1
232.19 K	1241.6
235.57 K	1256.3
239.35 K	1265.1
243.62 K	1286.5
247.83 K	1297.2
252.02 K	1318.1
256.17 K	1324
260.28 K	1339.5
264.35 K	1355.8
268.38 K	1368.2
272.36 K	1390.1
276.3 K	1406.8
280.21 K	1418.2
284.86 K	1435.3
290.1 K	1457.8
295.36 K	1477.1
300.5 K	1499
305.57 K	1521.1
310.61 K	1529.2
315.6 K	1558.3
320.54 K	1577.6
325.43 K	1599.1
330.3 K	1607
335.02 K	1641.9
339.66 K	1649.4
344.14 K	1668.3
